Data as given in US20250339399A1, “SUPRAMOLECULAR SELF-ASSEMBLY SYSTEM” (Beijing Creatron Institute of Pharmaceutical Research Co., …, priority 2022, published 2025).

Legend:
[1] = Binary (carrier), ternary and quaternary supramolecular self-assembly systems of polymer, carrier building block and target: guest concentration over incubation time (Examples 1-56); assay type: physicochemical; conditions: 6 h
Outline: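 Targets were incubated at 37 °C in pH 2.0–7.4 buffers with 0.5% polymer alone or with carrier building blocks, after 0.5 h sonication for ternary systems, and shaken at 200 rpm. Samples at 0.5–6 h were centrifuged and diluted ≥10-fold, and dissolved target was quantified by HPLC; surfactant was added if needed.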

[2] = cited from earlier work
[3] = Guest molecule concentration after incubation in initial medium without polymer (Comparative Example 1); assay type: physicochemical; conditions: 37° C.
Outline: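 Dissolved guest content measured by HPLC of centrifuged supernatants (37° C., 13000 rpm, 5 min) sampled at 0.5 h, 3 h and 6 h. Incubation was polymer-free at 37° C.±0.5° C. in buffers of pH 2.0-7.4; nominal loading was set by maximum clinical dose.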

[4] = Binary supramolecular self-assembly systems of polymer and target: guest concentration over incubation time (Comparative Example 2); assay type: physicochemical; conditions: for Concentration of guest molecule in solution / Times that of the initial medium: 6 h
Description: Experiments were conducted according to the steps in Comparative Example 1, and quantitative analysis was carried out using the analytical method for each target to investigate the regulation ability […] stacking.

[5] = binary system with 0.5% polymer 101, incubation 0.5 h
[6] = binary system with 0.5% polymer 101, incubation 3 h
[7] = binary system with 0.5% polymer 101, incubation 6 h
[8] = binary system with 0.5% polymer 102, incubation 0.5 h
[9] = binary system with 0.5% polymer 102, incubation 3 h
[10] = binary system with 0.5% polymer 102, incubation 6 h
[11] = binary system with 0.5% polymer 103, incubation 0.5 h
[12] = binary system with 0.5% polymer 103, incubation 3 h
[13] = binary system with 0.5% polymer 103, incubation 6 h
[14] = binary system with 0.5% polymer 104, incubation 0.5 h
[15] = binary system with 0.5% polymer 104, incubation 3 h
[16] = binary system with 0.5% polymer 104, incubation 6 h
[17] = binary system with 0.5% polymer 106, incubation 0.5 h
[18] = binary system with 0.5% polymer 106, incubation 3 h
[19] = binary system with 0.5% polymer 106, incubation 6 h
[20] = binary system with 0.5% polymer 107, incubation 0.5 h
[21] = binary system with 0.5% polymer 107, incubation 3 h
[22] = binary system with 0.5% polymer 107, incubation 6 h
[23] = system built by polymers 102H and 103E3 with carrier 302
[24] = ternary: 102H (0.25% where stated) + 301, carrier % not stated

Concentration of guest molecule measured after different incubated time ([3]; 0.5 h, pH 6.8 phosphate buffer)	Concentration of guest molecule measured after different incubated time ([3]; 3 h, pH 6.8 phosphate buffer)	Concentration of guest molecule measured after different incubated time ([3]; 6 h, pH 6.8 phosphate buffer)	Concentration of the target in the solution measured after different incubation time [4, 5]	Concentration of the target in the solution measured after different incubation time [4, 6]	Concentration of the target in the solution measured after different incubation time [4, 7]	Concentration of the target in the solution measured after different incubation time [4, 8]	Concentration of the target in the solution measured after different incubation time [4, 9]	Concentration of the target in the solution measured after different incubation time [4, 10]	Concentration of the target in the solution measured after different incubation time [4, 11]	Concentration of the target in the solution measured after different incubation time [4, 12]	Concentration of the target in the solution measured after different incubation time [4, 13]	Concentration of the target in the solution measured after different incubation time [4, 14]	Concentration of the target in the solution measured after different incubation time [4, 17]	Concentration of the target in the solution measured after different incubation time [4, 18]	Concentration of the target in the solution measured after different incubation time [4, 19]	Concentration of the target in the solution measured after different incubation time [4, 20]	Concentration of the target in the solution measured after different incubation time [4, 21]	Concentration of the target in the solution measured after different incubation time [4, 22]	Structure (SMILES)	LogD7.4 or Log P [2]	also measured
7.6 µg/mL	1.7 µg/mL	0.9 µg/mL	45.5 µg/mL	29.3 µg/mL	28.6 µg/mL	76.8 µg/mL	26.2 µg/mL	27.8 µg/mL	12.9 µg/mL	11.3 µg/mL	7.6 µg/mL	37.8 µg/mL	7.3 µg/mL	7.9 µg/mL	6.5 µg/mL	68.2 µg/mL	9.7 µg/mL	6.1 µg/mL	COc1cc2nccc(Oc3ccc(NC(=O)NC4CC4)c(Cl)c3)c2cc1C(N)=O [Lenvatinib]	2.52	Concentration of guest molecule in solution ([1]; quaternary: 0.25% 205 (102H+104) + 310): 116.4 µg/mL; Concentration of guest molecule in solution ([1]; quaternary: 0.25% 205 (102H+104) + 313, carrier % not stated): 112.1 µg/mL; Concentration of the target in the solution measured after different incubation time [4, 15]: 42.7 µg/mL; Concentration of the target in the solution measured after different incubation time [4, 16]: 67.5 µg/mL; Concentration of guest molecule in solution ([4]; binary: 102H, % not stated at the place): 59.5 µg/mL; Concentration of guest molecule in solution ([4]; binary: 104, % not stated at the place): 47.6 µg/mL
35.0 µg/mL	33.8 µg/mL	28.0 µg/mL	56.0 µg/mL	75.2 µg/mL	46.2 µg/mL	56.5 µg/mL	71.5 µg/mL	89.5 µg/mL	34.3 µg/mL	28.5 µg/mL	27.7 µg/mL	–	41.5 µg/mL	35.6 µg/mL	32.5 µg/mL	46.5 µg/mL	43.5 µg/mL	39.3 µg/mL	CCCNS(=O)(=O)Nc1ncnc(OCCOc2ncc(Br)cn2)c1-c1ccc(Br)cc1 [Macitentan]	–	Concentration of guest molecule in solution ([1]; Comparative Example 4, quaternary: 0.25% 201 + 0.25% 305): 59.5 µg/mL; Concentration of guest molecule in solution ([1]; Comparative Example 4, quaternary: 0.25% 201 + 0.25% 309): 29.2 µg/mL; Concentration of guest molecule in solution ([1]; quaternary: 0.25% 201 (102H+101) + 0.25% 307): 362.5 µg/mL; Concentration of guest molecule in solution ([1]; quaternary: 0.25% 201 (102H+101) + 0.25% 308): 516.0 µg/mL; Concentration of guest molecule in solution ([1]; quaternary: 0.25% 201 (102H+101) + 0.25% 313): 474.6 µg/mL; Concentration of guest molecule in solution ([1]; quaternary: 0.25% 201 (102H+101) + 0.25% 320): 562.4 µg/mL; Concentration of guest molecule in solution ([1]; quaternary: 0.25% 201 (102H+101) + 0.25% 321): 596.3 µg/mL; LogP [2]: LogP 3.55; Concentration of the target in the solution measured after different incubation time ([4]; binary system with 0.5% polymer 110, incubation 0.5 h): 28.7 µg/mL; Concentration of the target in the solution measured after different incubation time ([4]; binary system with 0.5% polymer 110, incubation 3 h): 34.7 µg/mL; Concentration of the target in the solution measured after different incubation time ([4]; binary system with 0.5% polymer 110, incubation 6 h): 33.5 µg/mL; Concentration of guest molecule in solution ([4]; binary: 0.5% 101): 46.2 µg/mL; Times that of the initial medium ([4]; binary: 0.5% 101): 4.3 times; Concentration of guest molecule in solution ([4]; binary: 0.5% 102H): 89.5 µg/mL; Times that of the initial medium ([4]; binary: 0.5% 102H): 10.4 times
–	–	–	117.0 µg/mL	145.8 µg/mL	149.9 µg/mL	96.7 µg/mL	188.9 µg/mL	189.9 µg/mL	125.2 µg/mL	159.3 µg/mL	181.5 µg/mL	77.5 µg/mL	121.2 µg/mL	81.8 µg/mL	50.0 µg/mL	107.2 µg/mL	62.3 µg/mL	52.3 µg/mL	Cc1cn(-c2cc(NC(=O)c3ccc(C)c(Nc4nccc(-c5cccnc5)n4)c3)cc(C(F)(F)F)c2)cn1 [Nilotinib]	5.35	Concentration of guest molecule in solution [1, 23]: 391.1 µg/mL; Encapsulation rate for the guest molecule [1, 23]: 97.8%; Concentration of guest molecule in solution [1, 24]: 227.2 µg/mL; Times that of the initial medium [1, 24]: 10 times; Concentration of guest molecule in solution ([1]; ternary: 102H + 310, carrier % not stated): 317.6 µg/mL; Concentration of guest molecule in solution ([1]; ternary: 102H + 313, carrier % not given): 365.2 µg/mL; Concentration of guest molecule in solution ([1]; ternary: 102M + 310): 344.0 µg/mL; Concentration of guest molecule in solution ([1]; ternary: 102M + 313): 328.9 µg/mL; Dissociation constant ([2]; basic drug): 5.92; Log D6.8 ([2]; pH 6.8): 5.27; Concentration of guest molecule measured after different incubated time ([3]; 0.5 h, 0.05% SDS in pH 6.8 phosphate buffer): 35.2 µg/mL; Concentration of guest molecule measured after different incubated time ([3]; 3 h, 0.05% SDS in pH 6.8 phosphate buffer): 24.2 µg/mL; Concentration of guest molecule measured after different incubated time ([3]; 6 h, 0.05% SDS in pH 6.8 phosphate buffer): 17.9 µg/mL; Concentration of the target in the solution measured after different incubation time [4, 15]: 84.9 µg/mL; Concentration of the target in the solution measured after different incubation time [4, 16]: 61.4 µg/mL; Times that of the initial medium ([4]; binary: 0.5% 102H): about 8.5 times; Times that of the initial medium ([4]; binary: 0.5% 104): ~2.7 times
